Molecules are shown by their SMILES. Converted amounts (≈) assume the structure as drawn. Like-named read-outs stand apart in the source and are kept apart here.

One data set is described as follows: in vitro. Particulars: human, 50% human plasma (pooled, sodium heparin) in PBS, pH 7.4.
Data set [1] deals with bioluminescent MSSA Xen-29. Nature of the data set: Bioluminescence IP infection in vivo model (neutropenic mice). More on the design: species or system Staphylococcus aureus. The settings on record: SC: 200 mg kg^−1 vancomycin, 50 mg kg^−1 daptomycin, 25 mg kg^−1 19 or 24. The procedure: Performed at the University of Queensland, following similar previous literature procedures. Xen-29 (Caliper LifeSciences), a methicillin-sensitive S. aureus (MSSA) strain which contains a copy of the modified luxABCDE operon of Photorhabdus luminescens was taken from the storage at −80 °C and freshly seeded on agar plates for overnight growth at 37 °C. From the overnight culture preparation, a single colony (tested for bioluminescence) was diluted into 10 mL of MHB and incubated overnight at 37 °C. A mid log-phase subculture was obtained by adding 100 μL of overnight subculture in 10 mL MHB and incubated for a further 2–3 h. Finally, the OD600 value of the bacterial suspension was determined and the colony forming units per millilitre (CFU mL^−1) was extrapolated. The suspension was then diluted out accordingly in order to achieve a 2.5 × 10^8 CFU mL^−1 solution (2.5 × 10^7 CFU in 100 μL). […] Mice were monitored for signs of normal behaviour (i.e. grooming, eating, drinking, sleeping and alertness) during and following dosing. […] Xen-29 colonies were then counted, with the CFU mL^−1 blood calculated. […] Luminescent images were quantified with the IVIS Living Image software where the total flux (number of photons/second) was calculated by a user defined region of interest (ROI) covering the infection sites.

Data set [2] relates to Bacillus subtilis ATCC 6633. Nature of the data set: microbe, parasite or virus in culture. Type of data set: cell-based. The settings on record: for MIC: Bacillus subtilis; for Molar excess of Ac2Kaa ligand required to antagonise antibacterial activity: [ligand]/[antibiotic], B. subtilis ATCC 6633, 24 h.
Data set [3] can be described thus: In vivo pharmacokinetics in mice. Particulars: mouse; for concentration at […]: 0.250 h; for concentration at 0.5 h: 0.500 h; for MRT inf: read-out: MRT0-inf; for MRT last: read-out: MRT0-last.
Method: Performed by WuXi AppTec (Shanghai) Co., Ltd. Seven to 9-week-old male CD1 mice (SLAC Laboratory Animal Co. Ltd., Shanghai, China) weighing 25–35 g were acclimated for approximate 3 days before being used in the study. Animals are group housed during acclimation and in-life study in compliance with the National Research Council 'Guide for the Care and Use of Laboratory Animals.' The animal room environment is controlled (target conditions: temperature 18 to 26 °C, relative humidity 30–70%, 12 h artificial light and 12 h dark) with temperature and relative humidity monitored daily. Animals were deprived of food for approximately 16 h before formulation administration then allowed access to Certified Rodent Diet (Catalogue # M-01F, Shanghai SLAC Laboratory Animal Co. Ltd.) ad libitum 4 h post dosing. Water was autoclaved before being provided to the animals ad libitum. Formulations of compounds were prepared on the morning of the dosing day. The formulation for the IV group was filtered with filter of 0.22 μm before being dosed to animals. After dose formulation preparation, duplicate 50 μL aliquots were removed from each dose formulation for use in dose validation. For each compound studied, three mice were dosed intravenously (IV) administered to each animal via tail vein per facility SOPs using test article formulated in deionised water at 1 mg mL^−1 with a dose volume of 2 mg mL^−1, providing a dose of 2 mg mL^−1 (based on free base concentration). An additional three mice were dosed subcutaneously (SC) administered to each animal via subcutaneous bolus on each animals’ back per facility SOPs using test article formulated in deionised water at 2 mg mL^−1 with a dose volume of 5 mg mL^−1, providing a dose of 10 mg mL^−1. All animals were killed at the last study time point (100% CO2 was introduced into the animal box).
Plasma samples were collected as the following target times after each dose administration: IV Sampling Time points (hours post dosing): 0, 0.083, 0.25, 0.5, 1, 2, 4, 8 and 24. SC Sampling Time points (hours post dosing): 0, 0.25, 0.5, 1, 2, 4, 8 and 24. Approximately 30 μL blood was obtained via submandibular or saphenous vein for the first several time points. For the last time point, samples were collected via cardiac puncture while the mouse was under anaesthesia. All blood samples were transferred into pre-chilled plastic microcentrifuge tubes containing 2 μL of ethylenediaminetetraacetic acid dipotassium salt (K2-EDTA) (0.5 M) as anticoagulant and placed on wet ice until centrifugation. Harvested blood samples were centrifuged within 30 min of collection at 7000 rpm (8546 × g) 4 °C for about 10 min. After centrifugation, plasma was transferred into another pre-labelled and pre-chilled polypropylene microcentrifuge tubes, then quick-frozen over dry ice and stored at −70 ± 10 °C until LC/MSMS analysis.
LC-MS/MS methods for the quantitative determination of the test article in mouse plasma were developed with an internal standard. Benchtop stability of the compound in mouse plasma was determined at mid QC concentrations in triplicate at 0, 2 h at room temperature. The stability was determined using mean peak area ratio of T2/T0 sample. If the mean peak area ratio is within 80%~120%, the test article in the plasma is considered stable for 2 h at room temperature. […] A set of QC samples consists of three concentration levels (low, middle and high). The sample analysis was performed concurrently with a set of calibration standards and two sets of QC samples using the LC-MS/MS method.
Plasma concentration vs. time data from individual animals was analysed by WinNonLin non-compartmental model (Phoenix WinNonlin 6.2.1, Pharsight, Mountain View, CA). Pharmacokinetic parameter C 0, T ½, CL, Vdss, C max, T max, AUC0-last, AUC0-inf, %F, MRT0-last, MRT0-inf and graphs of plasma concentration vs. time profile were derived.
For data set [4] the following is noted: cited from earlier work; for log decrease: CAMHB with polysorbate-80; for log reduction from initial inoculum: nutrient-depleted media, ref Belley AAC 2009 53, 918.
The mark [5] stands for this setting: male, CD1, plasma, 2 mg/kg IV, read-out: Plasma concentration, Mean IV.
Where [6] appears, read: male, CD1, plasma, 10 mg/kg SC, read-out: Plasma concentration, Mean SC.
Setting [7] is: male, CD1, plasma, IV 2 mg kg-1.
The mark [8] stands for this setting: male, CD1, plasma, SC 10 mg kg-1.

In general, share remaining refers to the share of the starting amount still present when the sample was taken. A lower share remaining goes with more turnover. As a reminder, the bioavailability is dose-corrected exposure relative to a reference, in per cent. Low values mean poor availability, high ones good availability. Broadly, the AUC(0-inf) is total exposure, with the tail of the curve extrapolated. Read a high AUC(0-inf) as high exposure. Broadly, the AUC(0-t) is exposure summed from dosing to a finite time, without extrapolation to infinity. Lower therefore signals low exposure. By clearance is commonly meant the rate of elimination divided by the concentration. High values mean efficient removal, low ones inefficient removal. In general, half-life refers to how long it takes for the measured level to halve. High values mean slow decline, low ones rapid decline. Broadly, the Cmax is the peak of the concentration-time curve. In general, Tmax refers to the time from dosing to the highest level. As to `CN[C@H](CC(C)C)C(=O)N[C@H]1C(=O)N[C@@H](CC(N)=O)C(=O)N[C@H]2C(=O)N[C@H]3C(=O)N[C@H](C(=O)N[C@H](C(=O)O)c4cc(O)cc(O)c4-c4cc3ccc4O)[C@H](O)c3ccc(c(Cl)c3)Oc3cc2cc(c3O[C@@H]2O[C@H](CO)[C@@H](O)[C@H](O)[C@H]2O[C@H]2C[C@](C)(N)[C@H](O)[C@H](C)O2)Oc2ccc(cc2Cl)[C@H]1O` [Compound 1, Vancomycin], in the data set “in vitro”, the amount remaining at 1 h, 20 µM was 100%; the share remaining at 3 h, 20 µM was determined as 87%; the fraction remaining at 6 h, 20 µM stood at 91%; the amount remaining at 24 h, 20 µM worked out at 63%. The “Change in bioluminescence signal (total flux) after inoculation” value in data set [1] is “progressive reduction in the bioluminescence signal”. Besides, in data set [2] (ATCC6633), the MIC turned out to be 0.25 µg/mL (≈ 0.173 µM). Moreover, the MIC in data set [2] (ATCC6633, read-out: Ac2Kaa concentration required to neutralise MIC activity) was 6.25 µg/mL (≈ 4.31 µM). For the same compound, the “Molar excess of Ac2Kaa ligand required to antagonise antibacterial activity” value in data set [2] is given as 100. For the same compound, in data set [2] (listed as Vancomycin 1), the “Molar excess of Ac2Kaa ligand required to antagonise antibacterial activity” value was 96. Besides, the bioavailability in data set [3] (male, CD1, plasma, subcutaneous, SC 10 mg kg-1 vs IV 2 mg kg-1) came out at 70.5%. In data set [3] (male, CD1, plasma, 2 mg/kg IV, 5 min, n=3), this compound returned a concentration at 5 min of 5790 ng/mL. Also, in data set [3] (setting [5]), the concentration at […] worked out at 3590 ng/mL, the concentration at 0.5 h amounted to 1980 ng/mL, the concentration at 1 h turned out to be 762 ng/mL and the concentration at 2 h stood at 193 ng/mL. In addition, the concentration at 4 h in data set [3] (setting [5]) came out at 27.5 ng/mL. The concentration at […] in data set [3] (male, CD1, plasma, 10 mg/kg SC, n=3, read-out: Plasma concentration, Mean SC) is 10700 ng/mL. For the same compound, in data set [3] (setting [6]), the concentration at 0.5 h came out at 9580 ng/mL, the concentration at 1 h was determined as 5200 ng/mL, the concentration at 2 h is 1270 ng/mL and the concentration at 4 h came out at 137 ng/mL. Further, in data set [3] (male, CD1, plasma, 10 mg/kg SC, 8.00 h), the concentration at 8 h amounted to 6.17 ng/mL. Besides, in data set [3] (setting [7]), the AUC(0-inf) was found to be 3240 ng·h/mL, the AUC(0-t) is 3210 ng·h/mL, the C0 amounted to 7360 ng/mL and the clearance amounted to 10.4 mL/min/kg. In data set [3] (setting [7]), the half-life is 38.4 min, the MRT inf was 37.2 min and the MRT last was found to be 35.4 min. In addition, in data set [3] (male, CD1, plasma, IV 2 mg kg-1, read-out: Vdss), the Vd came out at 0.39 L/kg. In data set [3] (setting [8]), the AUC(0-inf) turned out to be 11400 ng·h/mL, the AUC(0-t) is 11400 ng·h/mL, the peak level (Cmax) was 10700 ng/mL and the Tmax was 15 min. In addition, in data set [3] (setting [8]), the half-life was 48 min, the MRT inf was 59.4 min and the MRT last came out at 58.8 min. In data set [3] (IV 2 mg kg-1), the AUC0-inf/AUC0-last came to 101% and the Tlast turned out to be 4 h. In addition, in data set [3] (SC 10 mg kg-1), the AUC0-inf/AUC0-last came to 100% and the Tlast worked out at 8 h.

For `CCCCCCCCCC(=O)N[C@@H](Cc1c[nH]c2ccccc12)C(=O)N[C@H](CC(N)=O)C(=O)N[C@@H](CC(=O)O)C(=O)N[C@@H]1C(=O)NCC(=O)N[C@@H](CCCN)C(=O)N[C@@H](CC(=O)O)C(=O)N[C@H](C)C(=O)N[C@@H](CC(=O)O)C(=O)NCC(=O)N[C@H](CO)C(=O)N[C@@H]([C@H](C)CC(=O)O)C(=O)N[C@@H](CC(=O)c2ccccc2N)C(=O)O[C@@H]1C` [Compound 4, Daptomycin], the “Change in bioluminescence signal (total flux) after inoculation” value in data set [1] was “progressive reduction in the bioluminescence signal”.

Take `CN[C@H](CC(C)C)C(=O)N[C@H]1C(=O)N[C@@H](CC(N)=O)C(=O)N[C@H]2C(=O)N[C@H]3C(=O)N[C@H](C(=O)N[C@H](C(=O)O)c4cc(O)cc(O)c4-c4cc3ccc4O)[C@H](O[C@H]3C[C@](C)(N)[C@@H](O)[C@H](C)O3)c3ccc(c(Cl)c3)Oc3cc2cc(c3O[C@@H]2O[C@H](CO)[C@@H](O)[C@H](O)[C@H]2O[C@H]2C[C@](C)(NCc3ccc(-c4ccc(Cl)cc4)cc3)[C@@H](O)[C@H](C)O2)Oc2ccc(cc2Cl)[C@H]1O` [Compound 5, Oritavancin, reference compound]: the log decrease is on record as 4.5 log in data set [4] (4 µg mL-, 1h, ref Belley AAC 2016 60 4342); 4.5 log in data set [4] (4 µg mL-, 1h, ref Mckay, J Antimicrob Chemother 2009, 63 1191); 4.5 log in data set [4] (16 µg mL-, 30 min, ref Belley AAC 2016 60 4342). The “log reduction from initial inoculum” value in data set [4] (4 µg mL-) was 3 log; in data set [4] (16 µg mL-, 3h, no polysorbate-80), “approximately 4 log”.

Values taken from paper PMC5750218, “Protein-inspired antibiotics active against vancomycin- and daptomycin-resistant bacteria” (Nature Communications, 2018).
